Measured values taken from patent publication US20220144853A1, “IMIDAZOLINE DERIVATIVES AS CXCR4 MODULATORS” (Université de Paris, priority 2019, published 2022).
Counter-ions that a name gives are not always drawn.

Tests used:
[1] = molecular target: T1, human CXCR4 (hCXCR4) receptor (Homo sapiens, UniProt P61073); assay: BRET assay of antagonist activity on the CXCR4-CXCL12 signaling pathway in transfected HEK-293 T cells; type: cell-based; details: Gαi1, Gαi2, Gαi3, GαoB or Gαz, EC80 CXCL12, FIG. 6
T1 construct: expressed in transfected cells; host or cells: HEK-293 T cells, transient co-transfection with polyethylenimine
Procedure: Examples of the present invention were tested for their antagonist activity on human CXCR4 (hCXCR4) receptor transiently over-expressed in HEK-293 T cells. Compounds exert antagonist activity if they decrease the action of CXCL12 on the receptor.
HEK-293 T cells are maintained in Dulbecco's Modified Eagle's Medium supplemented with 10% Foetal Calf Serum, 1% Penicillin/Streptomycin at 37° C./5% CO2. […] After transfection, cells are cultured for 48 h at 37° C./5% CO2.
On the day of the assay, cells are detached using trypsin 0.05%, resuspended in assay buffer (1.8 mM CaCl2, 1 mM MgCl2, 2.7 mM KCl, 137 mM NaCl, 0.4 mM NaH2PO4, 5.5 mM D-Glucose, 11.9 mM NaHCO3, 25 mM Hepes) and seeded in 384 well plate at a density of 20,000 cells per well.
Cells are first incubated for 10 minutes with the compound alone. Then, cells are stimulated by an EC80 CXCL12 concentration for additional 10 minutes and luminescence is recorded. […] Antagonist activity is evaluated in comparison to basal signals evoked by EC80 CXCL12 alone.
For IC50 determination, a dose-response test is performed using 20 concentrations (ranging over 6 logs) of each compound. Dose-response curves are fitted using the sigmoidal dose-response (variable slope) analysis in GraphPad Prism software (GraphPad Software) and IC50 of antagonist activity is calculated. […]

[2] = tested on: IFN production by activated immune cells (PBMC) from lupus patients; assay: IFN production by R848-activated PBMC from lupus patients, STING-37 reporter cell line; type: cell-based, human; details: 10 μM, PBMC from three SLE patients, FIG. 2
Procedure: (§1) Material from Juvenile Dermatomyositis and Lupus patients were obtained from Necker Hospital, Paris, France or from Imagine Institute, Paris, France. The study was approved by the Conité des Protection des Personnes (ID-RCB/EUDRACT: 2014-A01017-40 and 2018-A01358-47) in France.
(§2) In vitro experiments were performed using human peripheral blood mononuclear cells (PBMCs) isolated by density centrifugation from peripheral blood leukocyte separation medium (Cambrex, Gaithersburg, Md.).
(§3) PBMCs were cultured in RPMI 1640 (Invitrogen, Gaithersburg, Md.) (R10) containing 10% heat-inactivated fetal bovine serum, 100 U/mL Penicilium and 100 μg/mL Streptomycin (1% Pen-Strep) and 1 mM glutamine (Hyclone, Logan, Utah).
1) The PBMCs used herein were prepared as described in part A “immune cells preparation”, section 1) above. PBMCs were seeded at 2.10^6/mL. […] Cells were then stimulated with the TLR7/8 agonist resiquimod—R848 (Invivogen) at 5 μg/mL. […]
(§4) 1) To quantify the secretion of functional IFN, a biological assay based on a stable cell line where luciferase reporter gene is controlled by five Interferon-Stimulated Response Elements (STING37 cell line) was used. […] After 24 h of culture, luciferase activity was determined by adding 50 μL of Bright-Glo reagents (Promega) to culture wells and measuring bioluminescence with a luminometer.

[3] = tested on: TNFα production by monocytes (CD14+ cells); assay: TNFα production by monocytes from juvenile dermatomyositis patients, intracellular staining by flow cytometry; type: cell-based, human; details: PBMCs from 2 juvenile dermatomyositis patients; R848 overnight; FIG. 3
Procedure: as §1, §2
(§5) 1) The PBMCs used herein were prepared as described in part A “immune cells preparation”, section 1) above. PBMCs were seeded at 2.10^6/mL. […] Cells were then stimulated with the TLR7/8 agonist resiquimod—R848 (Invivogen) at 5 μg/mL. When stated, AMD (20 μM) (Sigma-Aldrich, MO, USA) was added to the cells 1 h before incubation with example 1.
R848-stimulated PBMCs were washed in PBS and then incubated with a viability stain (Zombie-Aqua, Biolegend) for 30 min at 4° C. After washing, the cells were resuspended in PBS containing 2% FCS and 2 mM EDTA and stained with the extracellular mix using APC-anti-BDCA4 (clone 12C2), FITC-anti-CD123 (clone 6H6), PerCP.cy5.5-anti-CD56 (clone 5.1H11), BV421-anti-HLADR (clone L243), PE.cy7-anti-CD19 (clone 4G7), APC-cy.7-anti-CD14 (clone M5E2) all from Biolegend and used at 1/200 and V500-anti-CD3 (BD Bioscience, clone SP34-2, 1/200). […]

[4] = tested on: IFN production by activated immune cells (PBMC); assay: IFN production by R848-activated PBMC from healthy donors, STING-37 reporter cell line; type: cell-based, human; details: different concentrations, R848, STING-37 reporter, FIG. 1
Procedure: 1) The blood from healthy donors was obtained from two sources. Either from “Etablissement Français du Sang” (convention #07/CABANEL/106), Paris, France or from the Apheresis and Blood Donation Unit at the Institute of Transfusion Medicine and Immunogenetics (IKT), Ulm, Germany after being approved by the Institutional Review Board at Ulm University.
as §2, §3
1) The PBMCs used herein were prepared as described in part A “immune cells preparation”, section 1) above. PBMCs were seeded at 2.10^6/mL. […]
as §4

[5] = tested on: TNFα production by monocytes (CD14+ cells); assay: Requirement of CXCR4 (siRNA knockdown or AMD3100) for the effect on TNFα production by monocytes from healthy donors; type: cell-based, human
Procedure: Monocytes were purified from PBMCs by positive selection with the CD14 microbeads (Miltenyi Biotec) and MACS column.
as §5
Isolated monocytes were seeded at 10^5 cells/100 μL in 96-well plates and incubated at 37° C. Cyclophilin B (control) and CXCR4 small interfering RNA (siRNA) (Smart Pool, Dharmarcon) was diluted in DOTAP (Roche Applied Sciences). The mix was gently mixed and incubated at room temperature for 15 minutes. After incubation, the mix was added to cells in culture at a final concentration of 160 nM. Finally, cells were incubated at 37° C. for 24 hours before stimulation.
R848-stimulated PBMCs were washed in PBS and then incubated with a viability stain (Zombie-Aqua, Biolegend) for 30 min at 4° C. After washing, the cells were resuspended in PBS containing 2% FCS and 2 mM EDTA and stained with the extracellular mix using APC-anti-BDCA4 (clone 12C2), FITC-anti-CD123 (clone 6H6), PerCP.cy5.5-anti-CD56 (clone 5.1H11), BV421-anti-HLADR (clone L243), PE.cy7-anti-CD19 (clone 4G7), APC-cy.7-anti-CD14 (clone M5E2) all from Biolegend and used at 1/200 and V500-anti-CD3 (BD Bioscience, clone SP34-2, 1/200). For the TNFα intracellular staining a Fixation/Permeabilization Solution Kit (BD Cytofix/Cytoperm) was used according to the manufacturer's protocol. Briefly, the cells were fixed for 10 min at 4° C. with 100 μL of the Fixation/Permeabilization solution then washed and stained in 100 μL of the BD Perm/Wash Buffer containing TNFα-APC (Miltenyi, 1/500) antibody for 1 h at 4° C. Data acquisition was performed on a Canto II flow cytometer using Diva software (BD Biosciences, San Jose, Calif.). FlowJo software (Treestar, Ashland, Oreg.) was used to analyze data.

IL-1β = assay: Cytokine production by R848-activated PBMCs, LEGENDplex Human Inflammation panel 1: IL-1β; type: cell-based; details: PBMCs from 2 healthy donors, R848 overnight, read-out: IC50 (μM) 1L-1β
Procedure: (§6) 2) The PBMCs used herein were prepared as described in part A “immune cells preparation”, section 2) above. PBMCs were seeded at 4.10^6/mL. […] Cells were then stimulated with the TLR7/8 agonist resiquimod—R848 (Sigma-Aldrich, MO, USA) at 5 μg/mL.
(§7) Cytokine expression levels were assessed using LEGENDplex Human inflammation panel 1 Kit (BioLegend, California, USA), which is a bead-based multiplex assay, using fluorescence-encoded beads. […] First, supernatants of R848-stimulated PBMCs were harvested after 24 h of stimulation and frozen at −20° C. for storage. Supernatants were dispensed into a 96-well V-bottom plate. Protocol pursued as per manufacturer recommendations (Manual for BioLegend LEGENDplex, Multi-Analyte Flow Assay Kit, Human Inflammation Panel 1, version 750000393_R01).

IFN-γ = assay: Cytokine production by R848-activated PBMCs, LEGENDplex Human Inflammation panel 1: IFN-γ; type: cell-based; details: PBMCs from 2 healthy donors, R848 overnight
Procedure: as §6, §7

IL-23 = assay: Cytokine production by R848-activated PBMCs, LEGENDplex Human Inflammation panel 1: IL-23; type: cell-based; details: PBMCs from 2 healthy donors, R848 overnight
Procedure: as §6, §7

IL-12p70 = assay: Cytokine production by R848-activated PBMCs, LEGENDplex Human Inflammation panel 1: IL-12p70; type: cell-based; details: PBMCs from 2 healthy donors, R848 overnight
Procedure: as §6, §7

IL-10 = assay: Cytokine production by R848-activated PBMCs, LEGENDplex Human Inflammation panel 1: IL-10; type: cell-based; details: PBMCs from 2 healthy donors, R848 overnight
Procedure: as §6, §7

[6] = tested on: IFN production by activated PBMCs; assay: IFN production by R848-activated PBMCs from healthy donors, twINNE reporter cell line; type: cell-based, human; details: means of two results over 2 healthy donors, R848 5 μg/mL, IT1t: mean over all experiments, read-out: IC50 of anti-inflammatory activity (IFN production)
How it was run: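 Human PBMCs (4.10^6/mL, RPMI/10% FBS, 37° C) stimulated with R848 at 5 μg/mL; supernatants collected after 24 h. Functional IFN measured on twINNE cells (ISRE-driven luciferase reporter) after 24 h culture by bioluminescence; IC50 from variable-slope dose-response fits.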

IL-18 = assay: Cytokine production by R848-activated PBMCs, LEGENDplex Human Inflammation panel 1: IL-18; type: cell-based; details: PBMCs from 2 healthy donors, R848 overnight
Procedure: as §6, §7

[7] = tested on: MCP-1, IL-6, IL-8 and IL-33; assay: Cytokine production by R848-activated PBMCs, LEGENDplex: other inflammatory cytokines; type: cell-based, human; details: PBMCs from two healthy donors; R848 5 μg/mL
Procedure: as §6, §7

TNF-α = assay: Cytokine production by R848-activated PBMCs, LEGENDplex Human Inflammation panel 1: TNF-α; type: cell-based; details: PBMCs from 2 healthy donors, R848 overnight
Procedure: as §6, §7

T1 sequence (P61073 whole entry): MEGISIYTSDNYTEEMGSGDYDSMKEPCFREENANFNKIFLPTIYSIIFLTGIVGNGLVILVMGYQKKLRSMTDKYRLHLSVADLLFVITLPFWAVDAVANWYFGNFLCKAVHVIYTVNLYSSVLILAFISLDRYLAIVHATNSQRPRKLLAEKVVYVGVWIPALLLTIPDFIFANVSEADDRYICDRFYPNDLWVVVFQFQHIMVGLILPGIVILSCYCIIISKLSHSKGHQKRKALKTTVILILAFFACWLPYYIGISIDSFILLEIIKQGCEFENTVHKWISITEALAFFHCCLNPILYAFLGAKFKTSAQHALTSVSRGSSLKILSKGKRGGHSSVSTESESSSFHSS

CC1(C)CN2C(CSC3=NC4CCCCC4N3)=CSC2=N1 (stereo not drawn) [Example 1, 3-(((3a,4,5,6,7,7a-hexahydro-1H-benzo[d]imidazol-2-yl)thio)methyl)-6,6-dimethyl-5,6-dihydroimidazo[2,1-b]thiazole dihydrochloride]
antagonist activity: recruitment of G proteins induced by the hCXCR4-CXCL12 interaction [1]: significantly lower than IT1t | IFN production by activated PBMCs [2]: level similar to the one of unstimulated negative controls | TNF-α production in CD14+ monocytes [3]: strongly inhibited | reduction of IFN production by activated PBMCs [4]: 100% | TNFα production by activated monocytes in the presence of the example after pre-incubation with AMD3100 ([5]; AMD3100 20 μM 1 h, example 1 5 μM or example 2 1 μM, R848, FIG. 5B): restored | TNFα production by activated monocytes in the presence of the example after CXCR4 siRNA ([5]; siCXCR4 160 nM 24 h, example 1 5 μM, R848, FIG. 5A): restored

CC1(C)CN2C(CSC(=NC3CCCCC3)NC3CCCCC3)=CSC2=N1 [IT1t, reference compound]
IC50 (IL-1β): 38 µM | IC50 (IFN-γ): 24 µM | IC50 (IL-23): 14 µM | IC50 (IL-12p70): 16 µM | IC50 (IL-10): 20 µM | IC50 [6]: 31 µM | IC50 (IL-18): 9.7 µM | inhibition on other inflammatory cytokines such as MCP-1, IL-6, IL-8 and IL-33 [7]: no or poor inhibition | IC50 (TNF-α): 48 µM
